In article PMC9864769, “Identification of Lignan Compounds as New 6-Phosphogluconate Dehydrogenase Inhibitors for Lung Cancer” (Metabolites, 2022):

Target: T1, 6-phosphogluconate dehydrogenase (6-PGD) (Homo sapiens, UniProt P52209)
T1 construct: native enzyme purified from human erythrocytes
T1 sequence (P52209 1-483): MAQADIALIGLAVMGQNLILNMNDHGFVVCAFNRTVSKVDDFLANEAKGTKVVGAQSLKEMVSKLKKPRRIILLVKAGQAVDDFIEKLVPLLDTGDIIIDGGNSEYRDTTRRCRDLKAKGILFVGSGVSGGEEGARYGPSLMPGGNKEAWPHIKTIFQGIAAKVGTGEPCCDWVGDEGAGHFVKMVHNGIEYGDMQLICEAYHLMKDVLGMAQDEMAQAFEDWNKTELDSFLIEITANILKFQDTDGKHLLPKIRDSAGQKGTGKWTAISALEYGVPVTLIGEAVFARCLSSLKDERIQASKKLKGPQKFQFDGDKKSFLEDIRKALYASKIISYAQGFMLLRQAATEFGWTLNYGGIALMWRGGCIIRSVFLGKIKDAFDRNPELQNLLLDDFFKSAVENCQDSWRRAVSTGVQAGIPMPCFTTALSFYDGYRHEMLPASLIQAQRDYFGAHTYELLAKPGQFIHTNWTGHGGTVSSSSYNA
Assay: enzyme activity assay (NADPH absorbance at […] nm) on 6-PGD purified from human erythrocytes; also A549 lysate assay
Assay type: biochemical
Settings: read-out: % reduction of activity at 200 μg/mL

| SMILES | inhibition at 200 µg/mL |
| --- | --- |
| COc1cc([C@H]2Oc3c(OC)cc4ccc(=O)oc4c3O[C@@H]2CO)ccc1O [cleomiscosin A] | 70% |
| COc1cc([C@H]2OC[C@H]3[C@@H]2CO[C@@H]3c2cc(OC)c(O)c(OC)c2)cc(OC)c1O [syringaresinol] | 76.3% |
